# According to US20220275274A1, “NEUTRAL FLUORESCENT MITOCHONDRIAL MARKER BASED ON NITROGEN-CONTAINING HETEROCYCLE, PREPARATION METHOD AND USE THEREOF” (SOOCHOW UNIVERSITY, priority 2020, published 2022):
# What was measured:
# [1] = system: L929 cells; assay: cell imaging, colocalization with green mitochondrial marker Mito Tracker Green FM; assay type: cell-based; conditions: dye 1 μM; for mitochondria labeling ability (red mitochondrial marker): L929 (normal) and HeLa (cancer) cells, vs Mito Tracker Green FM; for colocalization coefficient: L929 cells, vs Mito Tracker Green FM (100 nm), red and green channel
# Method: (§1) Dye 3a was formulated into a mother liquor in DMSO (dimethyl sulfoxide), and then added to a conventional cell culture medium to give a concentration of dye 3a in the cell culture medium of 1 μM. L929 cells and HeLa cells were respectively co-cultured for 10 min in an incubator at saturated humidity, 37° C., and 5% CO2 (the experiment was same below). The existing green mitochondrial marker Mito Tracker® Green FM (100 nm) was added, and the cells were co-incubated for another 10 min, washed three times with a PBS buffer, and imaged under a laser confocal microscope. In the red channel, light of 561 nm was used for excitation, and a fluorescence signal in the range of 570-750 nm was collected. In the green channel, light of 488 nm was used for excitation, and a fluorescence signal in the range of 500-550 nm was collected. […] The results are shown in FIG. 20, where (a) and (g) are the bright-field images; (b) and (h) are the cell images with dye 3a; (c) and (i) are the cell images with the green mitochondrial marker; (d) and (j) are overlapped images with red channel and green channel, (e) and (k) show the fluorescence intensity of the ROI line in the overlapped images; and (f) and (1) show colocalization assays, with a colocalization coefficient of 0.91 (L929) and 0.90 (HeLa) respectively.
# (§2) The experiment method with dye 3b (1 μM) and dye 3c (1 μM) is the same as that with dye 3a above, except that dye 3a is replaced. […] In FIG. 21, (a) and (g) are the bright-field images; (b) and (h) are the cell images with dye 3b; (c) and (i) are the cell images with the green mitochondrial marker; (d) and (j) are overlapped images with red channel and green channel, (e) and (k) show the fluorescence intensity of the ROI line in the overlapped images; and (f) and (1) show colocalization assays, with a colocalization coefficient of 0.88 (L929) and 0.90 (HeLa) respectively. In FIG. 22, (a) and (g) are the bright-field images; (b) and (h) are the cell images with dye 3c; (c) and (i) are the cell images with the green mitochondrial marker; (d) and (j) are overlapped images with red channel and green channel, (e) and (k) show the fluorescence intensity of the ROI line in the overlapped images; and (f) and (1) show colocalization assays, with a colocalization coefficient of 0.89 (L929) and 0.87 (HeLa) respectively.
# (§3) Dye 3d was formulated into a mother liquor in DMSO (dimethyl sulfoxide), and then added to a conventional cell culture medium to give a concentration of dye 3d in the cell culture medium of 1 μM. L929 cells and HeLa cells were respectively co-cultured for 10 min in an incubator at saturated humidity, 37° C., and 5% CO2. Then the green mitochondrial marker Mito Tracker® Green FM (100 nm) and a green lipid droplet marker were added (the synthesis is as described in CHen, Y.; Wei, X. R.; Sun, R.; Xu, Y. J.; Ge, J. F. Org Biomol CHem 2018, 16, 7619.). The cells were co-incubated for another 10 min, washed three times with a PBS buffer, and imaged under a laser confocal microscope. In the red channel, light of 561 nm was used for excitation, and a fluorescence signal in the range of 570-750 nm was collected. In the green channel, light of 488 nm was used for excitation, and a fluorescence signal in the range of 500-550 nm was collected. […] The results are shown in FIG. 23, where (a) and (f) are the bright-field images, (b) and (g) are the cell images with dye 3d, (c) is the cell image with the green lipid droplet marker, (h) is the cell image with the green mitochondrial marker, (d) and (i) are overlapped images with red channel and green channel, and (e) and (j) show the fluorescence intensity of the ROI line in the overlapped images. […]
# [2] = ultraviolet absorption and fluorescence emission in chloroform; assay type: physicochemical; conditions: 10 μM; for maximum emission wavelength (fluorescence spectrum): excitation wavelength and slit width per dye
# Method: The ultraviolet absorption and fluorescence emission of the dyes prepared in the examples and comparative examples (at a concentration of 10 μM) in chloroform were tested. The horizontal ordinate is the wavelength, and the vertical ordinate is the absorbance and fluorescence intensity, respectively.
# In the ultraviolet-visible absorption spectrum, dye 1a has the maximum absorption at 378 nm; and in the fluorescence spectrum, dye 1a has the highest fluorescence intensity at 452 nm, where the excitation wavelength is 370 nm, and the slit width is 3 nm/1.5 nm. In the ultraviolet-visible absorption spectrum, dye 1b has a maximum absorption wavelength of 382 nm; and in the fluorescence spectrum, dye 1b has a maximum emission wavelength of 485 nm, where the excitation wavelength is 374 nm, and the slit width is 3 nm/1.5 nm. In the ultraviolet-visible absorption spectrum, dye 1c has a maximum absorption wavelength of 385 nm; and in the fluorescence spectrum, dye 1c has a maximum emission wavelength of 454 nm, where the excitation wavelength is 380 nm, and the slit width is 3 nm/1.5 nm. In the ultraviolet-visible absorption spectrum, dye 2a has the maximum absorption at 364 nm; and in the fluorescence spectrum, dye 2a has the highest fluorescence intensity at 480 nm, where the excitation wavelength is 374 nm, and the slit width is 3 nm/1.5 nm. In the ultraviolet-visible absorption spectrum, dye 2b has a maximum absorption wavelength of 360 nm; and in the fluorescence spectrum, dye 2b has a maximum emission wavelength of 458 nm, where the excitation wavelength is 370 nm, and the slit width is 3 nm/1.5 nm. In the ultraviolet-visible absorption spectrum, dye 2c has a maximum absorption wavelength of 356 nm; and in the fluorescence spectrum, dye 2c has a maximum emission wavelength of 441 nm, where the excitation wavelength is 360 nm, and the slit width is 3 nm/3 nm. In the ultraviolet-visible absorption spectrum, dye 3a has the maximum absorption at 548 nm; and in the fluorescence spectrum, dye 3a has the highest fluorescence intensity at 606 nm, where the excitation wavelength is 560 nm, and the slit width is 1.5 nm/1.5 nm. In the ultraviolet-visible absorption spectrum, dye 3b has a maximum absorption wavelength of 549 nm; and in the fluorescence spectrum, dye 3b has a maximum emission wavelength of 608 nm, where the excitation wavelength is 540 nm, and the slit width is 1.5 nm/1.5 nm. In the ultraviolet-visible absorption spectrum, dye 3c has a maximum absorption wavelength of 554 nm; and in the fluorescence spectrum, dye 3c has a maximum emission wavelength of 611 nm, where the excitation wavelength is 540 nm, and the slit width is 1.5 nm/1.5 nm. In the ultraviolet-visible absorption spectrum, dye 3d has a maximum absorption wavelength of 556 nm; and in the fluorescence spectrum, dye 3d has a maximum emission wavelength of 619 nm, where the excitation wavelength is 570 nm, and the slit width is 1.5 nm/1.5 nm. In the ultraviolet-visible absorption spectrum, dye 4 has a maximum absorption wavelength of 501 nm; and in the fluorescence spectrum, dye 4 has a maximum emission wavelength of 515 nm, where the excitation wavelength is 495 nm, and the slit width is 1.5 nm/1.5 nm. The above UV absorption and fluorescence emission test methods are conventional methods.
# [3] = system: HeLa cells; assay: cell imaging, colocalization with green mitochondrial marker Mito Tracker Green FM; assay type: cell-based; conditions: dye 1 μM, vs Mito Tracker Green FM (100 nm), red and green channel
# Method: as §1, §2, §3
Structure (SMILES),"organelles marked ([1]; L929 and HeLa cells, vs Mito Tracker Green FM and a green lipid droplet marker)",maximum absorption wavelength (ultraviolet-visible absorption spectrum) [2] [nm],maximum emission wavelength (fluorescence spectrum) [2] [nm],mitochondria labeling ability (red mitochondrial marker) [1],colocalization coefficient [1],colocalization coefficient [3]
CCN(CC)c1ccc2nc3c4ccc(-c5ccc6nccnc6c5)cc4c(=O)cc-3oc2c1 [dye 3d],"simultaneously mark two organelles, i.e. mitochondria and lipid droplets",556,619,,,
CCN(CC)c1ccc2nc3c4ccc(-c5cnc6[nH]ncc6c5)cc4c(=O)cc-3oc2c1 [dye 3c],,554,611,mitochondria labeling ability in both normal cells and cancer cells,0.89,0.87
CCN(CC)c1ccc2nc3c4ccc(-c5ccc6[nH]ncc6c5)cc4c(=O)cc-3oc2c1 [dye 3a],,548,606,mitochondria labeling ability in both normal cells and cancer cells,0.91,0.90
CCN(CC)c1ccc2nc3c4ccc(-c5cnc6[nH]ccc6c5)cc4c(=O)cc-3oc2c1 [dye 3b],,549,608,mitochondria labeling ability in both normal cells and cancer cells,0.88,0.90
